According to patent US9174948B2, “Desferrithiocin polyether analogues” (University of Florida Research Foundation, Inc., priority 2007, dated 2015):
Read-outs that look alike come from different tables or passages of the source.

Assays:
[1] = test system: Iron-Overloaded Cebus apella Primates; conditions: Cebus apella, po, 150 μmol/kg, historical data, cited from earlier work
[2] = test system: Non-Iron-Overloaded Rodents; conditions: rats, po, 300 μmol/kg, historical data, cited from earlier work
[3] = test system: Non-Iron-Overloaded Rodents; assay: Chelator-induced iron clearance in non-iron-overloaded, bile duct-cannulated rats; assay type: in vivo, rat (male Sprague-Dawley); conditions: po, 300 μmol/kg
Text: Chelator-Induced Iron Clearance in Non-Iron-Overloaded Rodents. […] J. Med. Chem. 2006, 49, 2772-2783]. Recall that iron-clearing efficiency (ICE) is defined as (net iron excretion)/(total iron-binding capacity of the chelator), expressed as a percent. The relative ICE values of compounds 1 and 2 were in keeping with their log Papp values: the more lipophilic, the larger log Papp, the more efficient the chelator. […] However, the ICE trend was in keeping with the biliary ferrokinetics (FIG. 3) and liver concentration of the chelators, for example, 3>1 (FIG. 4).
Cannulation of Bile Duct in Non-Iron-Overloaded Rats has been described previously. […]. […] The urine sample(s) was taken at 24 h intervals. Sample collection and handling are as previously described [Bergeron, R. J., Streiff, R. R., Creary, E. A., Daniels, R. D., Jr., King, W., Luchetta, G., Wiegand, J., Moerker, T. and Peter, H. H. A Comparative Study of the Iron-Clearing Properties of Desferrithiocin Analogues with Desferrioxamine B in a Cebus Monkey Model. Blood 1993, 81, 2166-2173; Bergeron, R. J., Streiff, R. R., Wiegand, J., Vinson, J. R. T., Luchetta, G., Evans, K. M., Peter, H. and Jenny, H.-B. A Comparative Evaluation of Iron Clearance Models. Ann. N.Y. Acad. Sci. 1990, 612, 378-393].
(§1) In the iron-clearing experiments, the rats were given a single 300 μmol/kg dose of drugs 1-9 orally (po).
(§2) J. Med. Chem. 1999, 42, 2432-2440].

[4] = test system: Iron-Overloaded Cebus apella Primates; assay: Chelator-induced iron clearance in iron-overloaded Cebus apella primates; assay type: in vivo; conditions: po, 75 μmol/kg
Text: Chelator-Induced Iron Clearance in Iron-Overloaded Cebus apella Primates. The iron-clearance data for all three sets of ligands are presented (Table 2). […] J. Med. Chem. 2003, 46, 1470-1477]>1 (16.8±7.2%) [Bergeron, R. J., Wiegand, J., McManis, J. S., McCosar, B. H., Weimar, W. R., Brittenham, G. M. and Smith, R. E. Effects of C-4 Stereochemistry and C-4′ Hydroxylation on the Iron Clearing Efficiency and Toxicity of Desferrithiocin Analogues. J. Med. Chem. 1999, 42, 2432-2440], the increase is not significant. Although (S)-4′-(HO)-DADFT-PE (3) is the least lipophilic chelator in the 1-3 series, it is just as efficient (ICE, 25.4±7.4%) [Bergeron, R. J., Wiegand, J., McManis, J. S., Vinson, J. R. T., Yao, H., Bharti, N. and Rocca, J. R. (S)-4,5-Dihydro-2-(2-hydroxy-4-hydroxyphenyl)-4-methyl-4-thiazolecarboxylic Acid Polyethers: A Solution to Nephrotoxicity.
The monkeys (3.5-4 kg) were iron overloaded with intravenous iron dextran as specified in earlier publications to provide about 500 mg of iron per kg of body weight [Bergeron, R. J., Streiff, R. R., Wiegand, J., Luchetta, G., Creary, E. A. and Peter, H. H. A Comparison of the Iron-Clearing Properties of 1,2-Dimethyl-3-hydroxypyrid-4-one, 1,2-Diethyl-3-hydroxypyrid-4-one, and Deferoxamine. Blood 1992, 79, 1882-1890]; the serum transferrin iron saturation rose to between 70 and 80%. At least 20 half-lives, 60 d [Wood, J. K., Milner, P. F. and Pathak, U. N. The Metabolism of Iron-dextran Given as a Total-dose Infusion to Iron Deficient Jamaican Subjects. Br. J. Haematol. 1968, 14, 119-129], elapsed before any of the animals were used in experiments evaluating iron-chelating agents.
Fecal and urine samples were collected at 24-h intervals and processed as described previously [Bergeron, R. J., Streiff, R. R., Creary, E. A., Daniels, R. D., Jr., King, W., Luchetta, G., Wiegand, J., Moerker, T. and Peter, H. H. A Comparative Study of the Iron-Clearing Properties of Desferrithiocin Analogues with Desferrioxamine B in a Cebus Monkey Model. Blood 1993, 81, 2166-2173; Bergeron, R. J., Streiff, R. R., Wiegand, J., Vinson, J. R. T., Luchetta, G., Evans, K. M., Peter, H. and Jenny, H.-B. A Comparative Evaluation of Iron Clearance Models. Ann. N.Y. Acad. Sci. 1990, 612, 378-393; Bergeron, R. J., Wiegand, J. and Brittenham, G. M. HBED: A Potential Alternative to Deferoxamine for Iron-Chelating Therapy. Blood 1998, 91, 1446-1452]. Briefly, the collections began 4 d prior to the administration of the test drug and continued for an additional 5 d after the drug was given. Iron concentrations were determined by flame atomic absorption spectroscopy as presented in other publications [Bergeron, R. J., Streiff, R. R., Wiegand, J., Vinson, J. R. T., Luchetta, G., Evans, K. M., Peter, H. and Jenny, H.-B. A Comparative Evaluation of Iron Clearance Models. Ann. N.Y. Acad. Sci. 1990, 612, 378-393; Bergeron, R. J., Wiegand, J., Wollenweber, M., McManis, J. S., Algee, S. E. and Ratliff-Thompson, K. Synthesis and Biological Evaluation of Naphthyldesferrithiocin Iron Chelators. J. Med. Chem. 1996, 39, 1575-1581].
as §1, §2

Compound | Iron-Clearing Efficiency (%) [1] | Iron-Clearing Efficiency (%) [2] | relative percentages of the iron excreted in the stool and urine [1] | also measured
C[C@]1(C(=O)O)CSC(c2cc(O)ccc2O)=N1 [Compound 4, (S)-2-(2,5-dihydroxyphenyl)-4,5-dihydro-4-methyl-4-thiazolecarboxylic acid] | 12.6±3.0% | 1.0±0.9% | – | –
COc1ccc(O)c(C2=N[C@@](C)(C(=O)O)CS2)c1 [Compound 5, (S)-4,5-dihydro-2-(2-hydroxy-5-methoxyphenyl)-4-methyl-4-thiazolecarboxylic acid] | 18.9±2.3% | 6.3±1.2% | – | –
COc1cccc(C2=N[C@@](C)(C(=O)O)CS2)c1O [Compound 8] | 22.5±7.1% | – | – | Iron-Clearing Efficiency (%) ([3]; 48 h sample collection period): 12.4±3.5%
C[C@]1(C(=O)O)CSC(c2ccc(O)cc2O)=N1 [drawing 3] | – | 1.1 ± 0.8% | – | relative percentages of the iron excreted in the bile and urine [2]: 100/0
COc1ccc(C2=N[C@@](C)(C(=O)O)CS2)c(O)c1 [drawing 4] | – | 6.6 ± 2.8% | – | relative percentages of the iron excreted in the bile and urine [2]: 98/2
COCCOCCOCCOc1ccc(C2=N[C@@](C)(C(=O)O)CS2)c(O)c1 [drawing 5] | – | 5.5 ± 1.9% | – | relative percentages of the iron excreted in the bile and urine [2]: 90/10
C[C@]1(C(=O)O)CSC(c2cc(O)ccc2O)=N1 [drawing 6] | – | 1.0 ± 0.9% | – | relative percentages of the iron excreted in the bile and urine [2]: 99/1
COc1ccc(O)c(C2=N[C@@](C)(C(=O)O)CS2)c1 [drawing 7] | – | 6.3 ± 1.2% | – | relative percentages of the iron excreted in the bile and urine [2]: 95/5
COCCOCCOCCOc1ccc(O)c(C2=N[C@@](C)(C(=O)O)CS2)c1 [drawing 8] | – | – | – | Iron-Clearing Efficiency (%) [3]: 8.0 ± 1.8%; relative percentages of the iron excreted in the bile and urine [3]: 98/2
C[C@]1(C(=O)O)CSC(c2cccc(O)c2O)=N1 [drawing 9] | – | – | – | Iron-Clearing Efficiency (%) [3]: 4.6 ± 0.9%; relative percentages of the iron excreted in the bile and urine [3]: 98/2
COc1cccc(C2=N[C@@](C)(C(=O)O)CS2)c1O [drawing 10] | – | – | – | Iron-Clearing Efficiency (%) ([3]; 48 h sample collection period): 12.4 ± 3.5%; relative percentages of the iron excreted in the bile and urine ([3]; 48 h sample collection period): 99/1
COCCOCCOCCOc1cccc(C2=N[C@@](C)(C(=O)O)CS2)c1O [drawing 11] | – | – | – | Iron-Clearing Efficiency (%) ([3]; 48 h sample collection period): 10.6 ± 4.4%; relative percentages of the iron excreted in the bile and urine ([3]; 48 h sample collection period): 95/5
C[C@]1(C(=O)O)CSC(c2ccc(O)cc2O)=N1 [drawing 12] | 16.8 ± 7.2% | – | 88/12 | –
COc1ccc(C2=N[C@@](C)(C(=O)O)CS2)c(O)c1 [drawing 13] | 24.4 ± 10.8% | – | 91/9 | –
COCCOCCOCCOc1ccc(C2=N[C@@](C)(C(=O)O)CS2)c(O)c1 [drawing 14] | 25.4 ± 7.4% | – | 96/4 | –
C[C@]1(C(=O)O)CSC(c2cc(O)ccc2O)=N1 [drawing 15] | 12.6 ± 3.0% | – | 88/12 | –
COc1ccc(O)c(C2=N[C@@](C)(C(=O)O)CS2)c1 [drawing 16] | 18.9 ± 2.3% | – | 94/6 | –
COCCOCCOCCOc1ccc(O)c(C2=N[C@@](C)(C(=O)O)CS2)c1 [drawing 17] | – | – | – | Iron-Clearing Efficiency (%) [4]: 8.1 ± 2.8%; relative percentages of the iron excreted in the stool and urine [4]: 56/44
C[C@]1(C(=O)O)CSC(c2cccc(O)c2O)=N1 [drawing 18] | 23.1 ± 5.9% | – | 83/17 | –
COc1cccc(C2=N[C@@](C)(C(=O)O)CS2)c1O [drawing 19] | 22.5 ± 7.1% | – | 91/9 | –
COCCOCCOCCOc1cccc(C2=N[C@@](C)(C(=O)O)CS2)c1O [drawing 20] | – | – | – | Iron-Clearing Efficiency (%) [4]: 24.5 ± 7.6%; relative percentages of the iron excreted in the stool and urine [4]: 72/28
